The values below come from patent publication EP4603105A1, “PHARMACEUTICAL COMPOSITION CONTAINING CYCLIC COMPOUND HAVING SELECTIVE KRAS INHIBITORY EFFECT AGAINST HRAS AND NRAS” (CHUGAI SEIYAKU KABUSHIKI KAISHA, priority 2022, dated 2024).

Test [1] deals with GDP-bound KRAS wild-type protein (Homo sapiens, UniProt P01116). Nature of the test: Binding to KRAS by surface plasmon resonance (SPR), dissociation constant KD. To be noted: Single Cycle Kinetics. The essentials: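 Compound binding is evaluated by SPR single-cycle kinetics, with concentrations added intermittently from low to high for 75 s each. Target surfaces carry GDP-loaded biotinylated Avi-RAS at about 100–300 RU, regenerated after each cycle; temperature 30°C. A 1:1 binding model gives KD.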

Test [2] has as its target GDP-bound NRAS wild-type protein (Homo sapiens, UniProt P01111). Nature of the test: Binding to NRAS by surface plasmon resonance (SPR), KD and KD ratio to KRAS. To be noted: ratio of KD for GDP-bound NRAS wild-type protein to KD for KRAS. The essentials:
(§1)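 GDP-bound biotin-Avi RAS captured at ~100–300 RU, 30°C, pH 7.4 HBS containing 10 µM GDP, 10 mM MgCl2, 1 mM DTT, 0.01% Tween 20 and 4% DMSO. KD by 1:1 fitting.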
(Surface plasmon resonance follows binding to a sensor surface in real time, without labels.)

For the next test, the target named is HRAS wild-type protein (Homo sapiens, UniProt P01112). Nature of the test: Binding to HRAS by surface plasmon resonance (SPR), KD and KD ratio to KRAS. To be noted: ratio of KD for HRAS wild-type protein to KD for KRAS. The essentials: as §1
The subject of test [3] is human lung cancer strain NCI-H441. Nature of the test: NCI-H441 cell proliferation inhibitory activity (CellTiter-Glo, 4 days). It counts as cell-based. As to conditions: NCI-H441 cells, 4 days, read-out: NCl-H441 IC50. The essentials: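 Readout: […] after the ATP-based reagent. Compound: serial dilutions in dimethyl sulfoxide.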
A general note: ATP-based viability assays read luminescence as a measure of living cells.

Sequence of HRAS wild-type protein (P01112 whole entry): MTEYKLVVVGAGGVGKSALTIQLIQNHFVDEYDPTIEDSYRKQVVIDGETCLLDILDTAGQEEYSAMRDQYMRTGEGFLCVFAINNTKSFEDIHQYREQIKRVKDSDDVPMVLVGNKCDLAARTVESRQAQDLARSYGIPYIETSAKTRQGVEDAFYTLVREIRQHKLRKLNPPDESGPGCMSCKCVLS
Sequence of GDP-bound KRAS wild-type protein (P01116 1-188 isoform P01116-2): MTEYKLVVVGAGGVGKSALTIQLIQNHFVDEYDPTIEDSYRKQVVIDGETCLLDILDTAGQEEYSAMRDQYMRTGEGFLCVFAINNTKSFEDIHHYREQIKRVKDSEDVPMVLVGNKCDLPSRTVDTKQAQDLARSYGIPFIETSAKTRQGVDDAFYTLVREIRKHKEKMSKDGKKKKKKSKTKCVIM
Sequence of GDP-bound NRAS wild-type protein (P01111 whole entry): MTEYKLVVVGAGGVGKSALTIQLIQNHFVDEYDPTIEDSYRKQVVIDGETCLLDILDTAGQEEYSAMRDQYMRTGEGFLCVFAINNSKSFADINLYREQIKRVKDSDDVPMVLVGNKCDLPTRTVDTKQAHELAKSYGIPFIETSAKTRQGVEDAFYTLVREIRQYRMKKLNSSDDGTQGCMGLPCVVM

Consider `CCCO[C@@H]1C[C@H]2C(=O)NC3(CC(C)(C)C3)C(=O)N(C)[C@@H](C3CCCC3)C(=O)N(C)[C@H](C(=O)N(C)CC)CC(=O)N(C)[C@@H](COCC)C(=O)N[C@@H]([C@@H](C)CC)C(=O)N3C[C@@H](C)C[C@H]3C(=O)N(C)[C@H]3C/C=C\CCN(C3=O)[C@@H](Cc3ccc(C(F)(F)F)cc3)C(=O)N(C)CC(=O)N[C@@H](CCc3cc(F)c(C(F)(F)F)c(F)c3)C(=O)N2C1` [PP3472], for which the Kd in test [1] was 3 nM. Besides, the “NRAS /KRAS” value in test [2] is “A (a compound having 10 or more and less than 20 is denoted as A)”. Further, the “HRAS /KRAS” value at HRAS wild-type protein is “A (a compound having 10 or more and less than 20 is denoted as A)”. Also, the IC50 in test [3] turned out to be 24.3 nM.
For the compound `CCC[C@H]1C(=O)N[C@@H]([C@@H](C)CC)C(=O)N(C2CC2)CC(=O)N(C)[C@H]2C/C=C\CCN(C2=O)[C@@H](Cc2ccc(C(F)(F)F)cc2)C(=O)N(C)CC(=O)N[C@@H](CCc2cc(F)c(C(F)(F)F)c(F)c2)C(=O)N2C[C@H](OCC)C[C@H]2C(=O)NC2(CCCC2)C(=O)N(C)[C@@H](C2CCCC2)C(=O)N(C)[C@H](C(=O)N(C)C)CC(=O)N1C` [PP3473], in test [1], the Kd is 0.53 nM. Further, in test [2], the “NRAS /KRAS” value is “AA (a compound having 20 or more is denoted as AA)”. Further, the “HRAS /KRAS” value at HRAS wild-type protein is “B (a compound having 3 or more and less than 10 is denoted as B)”. The IC50 in test [3] is 13.5 nM.
Compound `CCC[C@H]1C(=O)N[C@@H]([C@@H](C)CC)C(=O)N2CCC[C@H]2C(=O)N(C)[C@H]2C/C=C\CCN(C2=O)[C@@H](Cc2ccc(C(F)(F)F)cc2)C(=O)N(C)CC(=O)N[C@@H](CCc2cc(F)c(C(F)(F)F)c(F)c2)C(=O)N2C[C@H](OCC)C[C@H]2C(=O)NC2(CCCC2)C(=O)N(C)[C@@H](C2CCCC2)C(=O)N(C)[C@H](C(=O)N(C)C)CC(=O)N1C` [PP3474] registered a Kd in test [1] of 0.43 nM. Besides, the “NRAS /KRAS” value in test [2] was “A (a compound having 10 or more and less than 20 is denoted as A)”. In addition, the “HRAS /KRAS” value on HRAS wild-type protein was “A (a compound having 10 or more and less than 20 is denoted as A)”. The IC50 in test [3] came to 14.8 nM.
Consider `CCO[C@@H]1C[C@H]2C(=O)NC3(CCCC3)C(=O)N(C)[C@@H](C3CCCC3)C(=O)N(C)[C@H](C(=O)N(C)C)CC(=O)N(C)[C@@H]([C@@H](C)OC)C(=O)N[C@@H]([C@@H](C)CC)C(=O)N(C3CC3)CC(=O)N(C)[C@H]3C/C=C\CCN(C3=O)[C@@H](Cc3ccc(C(F)(F)F)cc3)C(=O)N(C)CC(=O)N[C@@H](CCc3cc(F)c(C(F)(F)F)c(F)c3)C(=O)N2C1` [PP3476], for which the Kd in test [1] was 0.37 nM. The “NRAS /KRAS” value in test [2] is “A (a compound having 10 or more and less than 20 is denoted as A)”. In addition, on HRAS wild-type protein, the “HRAS /KRAS” value is “A (a compound having 10 or more and less than 20 is denoted as A)”. The IC50 in test [3] was determined as 15.2 nM.
In test [1], `CCO[C@@H]1C[C@H]2C(=O)NC3(CCCC3)C(=O)N(C)[C@@H](C3CCCC3)C(=O)N(C)[C@H](C(=O)N(C)C)CC(=O)N(C)[C@@H]([C@@H](C)OC)C(=O)N[C@@H]([C@@H](C)CC)C(=O)N3CCC[C@H]3C(=O)N(C)[C@H]3C/C=C\CCN(C3=O)[C@@H](Cc3ccc(C(F)(F)F)cc3)C(=O)N(C)CC(=O)N[C@@H](CCc3cc(F)c(C(F)(F)F)c(F)c3)C(=O)N2C1` [PP3477] showed a Kd of 0.51 nM. The “NRAS /KRAS” value in test [2] is “A (a compound having 10 or more and less than 20 is denoted as A)”. For the same compound, the “HRAS /KRAS” value at HRAS wild-type protein is “A (a compound having 10 or more and less than 20 is denoted as A)”. The IC50 in test [3] stood at 44.7 nM.
Regarding `CCC[C@H]1C(=O)N[C@@H]([C@@H](C)CC)C(=O)N(C2CC2)CC(=O)N(C)[C@H]2C/C=C\CCN(C2=O)[C@@H](Cc2ccc(C)cc2)C(=O)N(C)CC(=O)N[C@@H](CCc2cc(F)c(C(F)(F)F)c(F)c2)C(=O)N2C[C@H](OCC)C[C@H]2C(=O)NC2(CCCC2)C(=O)N(C)[C@@H](C2CCCC2)C(=O)N(C)[C@H](C(=O)N(C)C)CC(=O)N1C` [PP3479], the Kd in test [1] is 0.51 nM. In addition, in test [2], the “NRAS /KRAS” value is “A (a compound having 10 or more and less than 20 is denoted as A)”. On HRAS wild-type protein, the “HRAS /KRAS” value is “A (a compound having 10 or more and less than 20 is denoted as A)”. The IC50 in test [3] came to 11.7 nM.
Turning to `CCC[C@H]1C(=O)N[C@@H]([C@@H](C)CC)C(=O)N2CCC[C@H]2C(=O)N(C)[C@H]2C/C=C\CCN(C2=O)[C@@H](Cc2ccc(C)cc2)C(=O)N(C)CC(=O)N[C@@H](CCc2cc(F)c(C(F)(F)F)c(F)c2)C(=O)N2C[C@H](OCC)C[C@H]2C(=O)NC2(CCCC2)C(=O)N(C)[C@@H](C2CCCC2)C(=O)N(C)[C@H](C(=O)N(C)C)CC(=O)N1C` [PP3480], binding in test [1] was characterised by a dissociation constant (Kd) of 0.49 nM. Further, the “NRAS /KRAS” value in test [2] is “A (a compound having 10 or more and less than 20 is denoted as A)”. Also, the “HRAS /KRAS” value at HRAS wild-type protein is “A (a compound having 10 or more and less than 20 is denoted as A)”. For the same compound, the IC50 in test [3] stood at 12.9 nM.
Consider `CCO[C@@H]1C[C@H]2C(=O)NC3(CCCC3)C(=O)N(C)[C@@H](C3CCCC3)C(=O)N(C)[C@H](C(=O)N(C)C)CC(=O)N(C)[C@@H]([C@@H](C)OC)C(=O)N[C@@H]([C@@H](C)CC)C(=O)N(C3CC3)CC(=O)N(C)[C@H]3C/C=C\CCN(C3=O)[C@@H](Cc3ccc(C)cc3)C(=O)N(C)CC(=O)N[C@@H](CCc3cc(F)c(C(F)(F)F)c(F)c3)C(=O)N2C1` [PP3482], for which, in test [1], the Kd was determined as 0.6 nM. For the same compound, the “NRAS /KRAS” value in test [2] is “A (a compound having 10 or more and less than 20 is denoted as A)”. Moreover, at HRAS wild-type protein, the “HRAS /KRAS” value was “A (a compound having 10 or more and less than 20 is denoted as A)”. In addition, the IC50 in test [3] was determined as 38.6 nM.
`CCO[C@@H]1C[C@H]2C(=O)NC3(CCCC3)C(=O)N(C)[C@@H](C3CCCC3)C(=O)N(C)[C@H](C(=O)N(C)C)CC(=O)N(C)[C@@H]([C@@H](C)OC)C(=O)N[C@@H]([C@@H](C)CC)C(=O)N3CCC[C@H]3C(=O)N(C)[C@H]3C/C=C\CCN(C3=O)[C@@H](Cc3ccc(C)cc3)C(=O)N(C)CC(=O)N[C@@H](CCc3cc(F)c(C(F)(F)F)c(F)c3)C(=O)N2C1` [PP3483] displayed a Kd in test [1] of 0.88 nM. Further, in test [2], the “NRAS /KRAS” value is “A (a compound having 10 or more and less than 20 is denoted as A)”. Also, the “HRAS /KRAS” value on HRAS wild-type protein was “A (a compound having 10 or more and less than 20 is denoted as A)”. The IC50 in test [3] came out at 55.8 nM.
`C#CCN1CC(=O)N(C)[C@H]2C/C=C\CCN(C2=O)[C@@H](Cc2ccc(C(F)F)cc2)C(=O)N(C)CC(=O)N[C@@H](CCc2cc(F)c(C(F)(F)F)c(F)c2)C(=O)N2C[C@H](OC(C)C)C[C@H]2C(=O)N(C)C2(CCC2)C(=O)N(C)[C@@H](C(CC)CC)C(=O)N(C)[C@H](C(=O)N(C)C)CC(=O)N(C)[C@@H](COCCC)C(=O)N[C@@H]([C@@H](C)OC)C1=O` [PP3485] had a Kd in test [1] of 0.75 nM. In test [2], the “NRAS /KRAS” value is “A (a compound having 10 or more and less than 20 is denoted as A)”. The “HRAS /KRAS” value on HRAS wild-type protein was “A (a compound having 10 or more and less than 20 is denoted as A)”. The IC50 in test [3] was 12 nM.
As for `C=CCN1CC(=O)N(C)[C@H]2C/C=C\CCN(C2=O)[C@@H](Cc2ccc(C(F)F)cc2)C(=O)N(C)CC(=O)N[C@@H](CCc2cc(F)c(C(F)(F)F)c(F)c2)C(=O)N2C[C@H](OC(C)C)C[C@H]2C(=O)N(C)C2(CCC2)C(=O)N(C)[C@@H](C(CC)CC)C(=O)N(C)[C@H](C(=O)N(C)C)CC(=O)N(C)[C@@H](COCCC)C(=O)N[C@@H]([C@@H](C)OCCC)C1=O` [PP3486], the Kd in test [1] turned out to be 0.61 nM. In addition, in test [2], the “NRAS /KRAS” value is “A (a compound having 10 or more and less than 20 is denoted as A)”. Moreover, the “HRAS /KRAS” value at HRAS wild-type protein is “A (a compound having 10 or more and less than 20 is denoted as A)”. Further, in test [3], the IC50 stood at 12.6 nM.

The term Kd denotes the concentration at which binding is half-saturated. Read a high Kd as weaker binding. In general, IC50 refers to the concentration that inhibits the measured activity by half.
